Publication PMC12756723, “Derivatives of the Cashew Nut Shell Liquid as Ligands of Pseudomonas aeruginosa Phenazine Protein D (PaPhzD)” (ACS Omega, 2025)
“Also recorded” adds a separate entry of the source.

Experiments:
human PPAR isoforms = system: human PPAR isoforms; parameters: method as in Sahin et al. 2022 (likely, number not given); details: previously investigated; ref Sahin et al. 2022 (likely, number not given); cited from earlier work
PaPhzD = biological target: T1, PaPhzD (Pseudomonas aeruginosa, UniProt P0DPB9); test: Thermal shift assay (TSA) with SYPRO Orange; format: binding; details: for ΔTm at 50 µM: read-out: ΔTm of PaPhzD; for Concentration–response behavior of ΔTm: 6.25 to 100 μM
T1 construct: inferred from Ni-NTA purification with imidazole elution; made in house; host or cells: E. coli BL21(DE3)
T1 sequence (P0DPB9 whole entry): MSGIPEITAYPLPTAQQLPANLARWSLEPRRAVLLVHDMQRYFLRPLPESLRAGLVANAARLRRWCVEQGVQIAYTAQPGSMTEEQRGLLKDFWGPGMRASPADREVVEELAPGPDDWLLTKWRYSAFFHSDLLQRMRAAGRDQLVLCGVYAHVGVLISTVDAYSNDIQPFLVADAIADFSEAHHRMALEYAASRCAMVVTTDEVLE
Experimental: Thermal shift assays were performed on an Applied Biosystems 7500 RT-PCR (Applied Biosystems, Foster City, CA USA). All experiments were carried out in triplicate with 1 °C per minute increments in temperatures that range from 25 to 85 °C in 96-well PCR plates (PCR plates 96-well, BioRad), sealed with transparent capping strips (Flatcap strips, BioRad). The fluorescence of SYPRO Orange (Invitrogen S6650) was monitored (excitation wavelength, 492 nm; emission wavelength, 610 nm). Before the compounds’ screening, protein and DMSO concentrations were evaluated to improve PaPhzD stability throughout the assay.
The protein concentration required for an optimal signal-to-noise ratio (>5-fold) was evaluated by analysis of the raw fluorescence curves at different PaPhzD concentrations (1–5 μM). Then, the effect of DMSO (0–10%) over PaPhzD T m was evaluated at the optimal protein concentration. Fluorescence raw data were recorded using Applied Biosystems 7500 Software v2.0 and then processed with NAMI software to calculate T m values by the first-derivative method.
LDT compounds were screened at a final concentration of 50 μM. Briefly, 1 μL of each compound (1 mM DMSO stock solution) was added to a mixed solution containing 5 μM PaPhzD diluted in 50 mM Tris–HCl buffer (pH 8.0) containing 100 mM NaCl, 1 mM DTT, and SYPRO Orange dye (Invitrogen S6650) (1:100 dilution). Each compound was assayed in triplicate, and ΔT m values were calculated by comparison to reference wells that had 1 μL DMSO instead of the LDT compounds. Differences between T m values (ΔT m) were considered statistically significant when p < 0.01, according to the one-way ANOVA followed by Dunnett’s post-test for multiple comparisons, available in GraphPad Prism 9.0 software (GraphPad Software, San Diego, CA, USA, www.graphpad.com).
Compounds with ΔT m values statistically different from the reference were also assayed at different concentrations (ranging from 6.25 to 100 μM) to evaluate the concentration–response behavior. The ΔT m versus concentration plots were generated using the nonlinear regression method available in GraphPad Prism version 9.0.

[1] = system: P. aeruginosa cells (ATCC 27853); test: Bacterial growth (OD600) in the PYO screening culture; format: cell-based, Pseudomonas aeruginosa; details: 100 μM
Experimental: (§1) The potential inhibitors, previously solubilized in DMSO, were added to the culture medium after the inoculation (final concentration = 100 μM). The control group was cultured in the presence of an equivalent volume of DMSO but without the presence of potential inhibitors. The cell suspension was maintained at 30 °C under constant agitation (180 rpm) for 24 h in a 24-well plate. After this period, the OD600 was measured to evaluate bacterial growth, and in parallel, after being subjected to centrifugation, the supernatant was read in a 96-well plate at a wavelength of 691 nm. The sterile medium used for culturing the microorganism was used as a positive control, and culture medium containing 1% DMSO was used as a negative control.

P. aeruginosa PA14 [2] = test: Biofilm assay (crystal violet); format: cell-based, Pseudomonas aeruginosa; details: 100 μM
Experimental: Exponential phase cultures of P. aeruginosa PA14 were diluted to 5 × 10^5 colony forming units (CFU) in 48-well plates with LB containing each compound (1, 3, and 5) at 100 μM final concentrations or 0.1% DMSO (v/v) as a negative control. The plate was incubated steadily at 30 °C for 20 h inside a plastic bag to avoid evaporation. After the incubation, the OD600 of each well was measured in a plate reader (SpectraMax Paradigm). The planktonic bacteria were removed by turning the plate over the waste, followed by three steps of washing with distilled water. After drying, a solution of 1% crystal violet was added to each well and incubated at room temperature for 30 min to stain the attached cells forming a ring at the air–liquid interface. The crystal violet solution was removed, and the plate was washed using the same procedure. The dye was solubilized with 30% acetic acid for 30 min at room temperature. The Abs550 was measured, and the value was divided by the OD600 for each well. A total of 24 replicates were made for each treatment (6 wells per plate, four plates)

[3] = system: P. aeruginosa cells (ATCC 27853); test: Screening of PYO production inhibitors (supernatant absorbance 691 nm); format: cell-based, Pseudomonas aeruginosa; details: 100 μM; for Pyocyanin production, Cohen's d vs control: 24 h, 30 °C; for Effect on pyocyanin production: vs DMSO control
Experimental: P. aeruginosa cells (ATCC 27853) were inoculated by depletion on King’s A agar, and the plates were incubated at 30 °C for 24 h. Isolated colonies were collected and resuspended in sterile saline solution (0.85%) until turbidity equivalent to optical density (OD) at 600 nm, equal to 0.3 (1.5 × 10^8 CFU/mL). This bacterial suspension was diluted 10-fold and used to inoculate King’s A broth.
as §1

PaPhzD-FITC = biological target: T2, PaPhzD-FITC (Pseudomonas aeruginosa, UniProt P0DPB9); test: Fluorescence binding assay with FITC-labeled PaPhzD
T2 construct: inferred from Ni-NTA purification with imidazole elution; made in house; host or cells: E. coli BL21(DE3)
T2 sequence (P0DPB9 whole entry): as above
Experimental: PaPhzD (2.1 mg/mL) was incubated with 6 mg/mL fluorescein isothiocyanate (FITC) (Sigma-Aldrich 46950) (1:1) for 2 h at 25 °C. Next, the reaction mixture was eluted on a Hi-Trap HP desalting column (GE Healthcare) with 2 CV of 50 mM HEPES buffer (pH 8.0). The collected fractions were quantified at two different wavelengths (280 and 495 nm), and the molar ratio (Abs495/Abs280) ranging from 0.3 to 1.0 was employed for K d calculation experiments.
Subsequently, the fluorescence intensity of 0.32 μM of FITC-labeled PaPhzD was measured on a real-time thermocycler (Applied Biosystems 7500) equipped with the filter FAN (excitation wavelength: 498 nm; emission wavelength: 530 nm) for 10 min in the presence of different concentrations of each LDT compound (ranging 0.7–100 μM), previously diluted in DMSO.
The fluorescence raw data were recorded using Applied Biosystems 7500 Software v2.0, then exported to GraphPad Prism version 9.0 software to build fluorescence intensity × concentration plots and calculate K d values of the ligands by the nonlinear regression method (3-parameter fit). All experiments were carried out in triplicate using a 96-well PCR plate, manually sealed with transparent capping strips (Flatcap strips, BioRadVR).

P. aeruginosa = test: Colony morphology in medium containing compounds; format: cell-based, Pseudomonas aeruginosa; details: data not shown
phzA1-G1 = test: lacZ transcriptional fusion, phzA1-G1 operon; format: cell-based, Pseudomonas aeruginosa; details: late exponential phase
Experimental: (§2) P. aeruginosa harbors two identically structured operons in its genome, which encode most of the enzymes responsible for PYO synthesis (phzA1-G1 and phzA2-G2) but have slightly different regulatory regions 1. lacZ transcriptional fusions for each operon were assayed at mid-log and late exponential phases (OD=1 and 3, respectively). At mid-log cultures, the expression of both QS-regulated operons is extremely low, and it increases more than 1000-fold at late exponential phase for phzA1-G1 and 4-fold for phzA2-G2, as expected. Addition of compounds 2 and 4 had no effect for both operons in the late […]
(§3) synthesis is not related to inhibition at the transcriptional level.
(§4) Figure 7S: Effect of LDT10 (2) and LDT13 (3) on the phzA1-G1 (A) and phzA2-G2 […]
(§5) (1 picture or pasted object on this page, not shown here)

phzA2-G2 = test: lacZ transcriptional fusion, phzA2-G2 operon; format: cell-based, Pseudomonas aeruginosa; details: late exponential phase
Experimental: as §2, §3, §4, §5

P. aeruginosa PA14 [4] = test: Swarming assay; format: cell-based, Pseudomonas aeruginosa; details: 100 μM
Experimental: Swarming assays were performed as described, using 6-well plates. Briefly, 3 μL of culture (OD600 = 3.0) was inoculated in the center of modified M9 (20 mM NH4Cl; 12 mM Na2HPO4; 22 mM KH2PO4; 8.6 mM NaCl; 1 mM MgSO4; 1 mM CaCl2 2 H2O; 11 mM glucose; 0.5% casamino acids (Difco)) with 0.5% of Bacto-agar (Difco), containing the respective compounds (100 μM final concentration, diluted in DMSO). Plates were incubated inside plastic bags to avoid evaporation at 30 °C for 16 h. After this period, pictures were taken, and the area covered by the colonies was measured using ImageJ. All assays were performed with four replicates, and 0.1% DMSO (v/v) was employed as a negative control.

PPAR LBDs = system: PPAR LBDs; parameters: method as in not printed (previous PPAR work); details: ref not given (previous PPAR work), cited from earlier work

Structure (SMILES) | PPAR activity profile (human PPAR isoforms) | ΔTm at 50 µM (PaPhzD) | Concentration–response behavior of ΔTm (PaPhzD) | other results
CCCCCCCCCCCCCCCc1cccc(OC)c1 [Compound 12] | do not activate PPAR receptors | < 0.5 °C | – | –
CCCCCCCCCCCCCCCc1cccc(OC)c1C(=O)O [Compound 4] | selective PPARα agonist | -3.3 °C | clear concentration–response behavior | Effect on bacterial growth [1]: without affecting bacterial growth; also recorded: no significant effect on bacterial growth; Effect on biofilm formation (P. aeruginosa PA14 [2]; vs DMSO control): without affecting bacterial growth or biofilm formation; also recorded: not significantly different the control; Pyocyanin production, Cohen's d vs control [3]: −2.69; Effect on pyocyanin production [3]: decreased pyocyanin production; Kd (PaPhzD-FITC): 3.6 µM; Effect on colony morphology (P. aeruginosa): No effects on colony morphology; Effect on phzA1-G1 transcription (phzA1-G1): no effect; Effect on phzA2-G2 transcription (phzA2-G2): no effect; Swarming motility, % compared to control conditions (P. aeruginosa PA14 [4]): 65%; Swarming motility, Cohen's d vs control (P. aeruginosa PA14 [4]): −0.95
CCCCCCCCCCCCCCCc1cccc(OC)c1C(=O)OC [Compound 9] | do not activate PPAR receptors | < 0.5 °C | – | –
CCCCCCCCCCCCCCCc1cccc(O)c1C(=O)OC [Compound 7] | do not activate PPAR receptors | < 0.5 °C | – | –
CCCCCCCCCCCCCCCc1cccc(OCC(=O)O)c1 [Compound 15] | pan-agonist activity | -3.8 °C | clear concentration–response behavior | Kd (PaPhzD-FITC): 1000 µM
CCCCCCCCCCCCCCCc1cccc(OC(C)=O)c1 [Compound 11] | do not activate PPAR receptors | < 0.5 °C | – | –
CCCCCCCCCCCCCCCc1cccc(OC(C)=O)c1C(=O)OC [Compound 8] | do not activate PPAR receptors | < 0.5 °C | – | –
CCCCCCCCCCCCCCCc1cccc(OC(C)(C)C(=O)OCC)c1 [Compound 14] | dual (PPARα and PPARγ) agonists | < 0.5 °C | – | Effect on Tm values for all three PPARs (PPAR LBDs): no effect on the T m values
CCCCCCCCCCCCCCCc1ccc(C(=O)O)c(OC)c1 [Compound 10] | dual (PPARα and PPARγ) agonists | -1.2 °C | – | –
CCCCCCCCCCCCCCCc1cccc(OCC(=O)OCC)c1 [Compound 13] | pan-agonist activity | -1.2 °C | – | Thermal shift in LBDs of PPARα and PPARγ (PPAR LBDs): negative thermal shift
CCCCCCCCCCCCCCCc1cccc(OC(C)(C)C(=O)O)c1 [Compound 16] | pan-agonist activity | -2.6 °C | – | –
CCCCCCCCCCCCCCCc1cccc(OC(C)=O)c1C(=O)O [Compound 3] | pan-agonist activity | -4.7 °C | clear concentration–response behavior | Biofilm mass, % of the control (P. aeruginosa PA14 [2]): ~30%; Biofilm, Cohen's d vs control (P. aeruginosa PA14 [2]): −2.29; Pyocyanin production, Cohen's d vs control [3]: −1.37; Effect on pyocyanin production [3]: no effect on pyocyanin production; Increase of PPAR LBDs Tm vs DMSO control (PPAR LBDs; 50 μM): up to +17 °C; Kd (PaPhzD-FITC): 0.72 µM; Effect on colony morphology (P. aeruginosa): No effects on colony morphology; Effect on swarming coverage area (P. aeruginosa PA14 [4]): did not affect the coverage area; Swarming motility, Cohen's d vs control (P. aeruginosa PA14 [4]): 0.51
CCCCCCCCCCCCCCCc1cccc(O)c1C(=O)O [Compound 1] | dual (PPARα and PPARγ) agonists | – | clear concentration–response behavior | –
